From patent US20120316203A1, “Compositions and Methods for Inhibition of Cancers” (THE OHIO STATE UNIVERSITY RESEARCH FOUNDATION, priority 2009, published 2012) come the findings set out here.

Experiment [1] relates to A2780 cells. The experiment in a line: Intracellular ROS by DCF fluorescence, A2780. In kind it is cell-based, human. As to conditions: 5 or 10 μM, 12 h. The procedure:
The ROS levels in cells treated with DAPs were determined using H2DCF-DA, a membrane-permeative fluorogenic probe. The acetate and acetoxymethyl ester groups of this probe are enzymatically cleaved inside living cells. The probe can then be oxidized by intracellular oxidants (ROS) to give a product, DCF, which emits a strong, green fluorescence (λex=504 nm; λem=529 nm). The fluorescence intensity is proportional to the level of cellular oxidants. Cells, grown to 80% confluence on 6-mm glass coverslips, were treated with […] H-4073, HO-3867, H-4318, or HO-4200 for 12 h, followed by incubation with H2DCF-DA. The cells were further incubated in the dark for 20 min and washed with protein-free medium, and then fluorescence images were immediately captured with a Nikon Eclipse TE2000-U camera system using excitation/emission at 495/520 nm. The captured images were then analyzed using MetaMorph image analysis software.

For experiment [2], the system named is A2780 and SKOV3 cells. The experiment can be described thus: Cell-migration (wound-healing) assay. It counts as cell-based, human. To be noted: 10 μM. The protocol:
Cell-migration assay was performed by wound-healing method. Cells were plated at equal density and grown to 90% confluence. Wounds were created using a sterile pipette tip. Cells were then rinsed with medium and replaced with the fresh medium and incubated with HO-3867 (10 μM). Areas of wound were marked and photographed at various time-points with a phase-contrast microscope. Cell-invasive assay was measured by an in vitro Boyden chamber assay. Briefly, 1×10^5 cells in 0.5 ml of serum-free RPMI 1640 medium were added to the wells of 8-μm-diameter pore membrane Boyden chambers, either coated with (BD Biosciences, Franklin Lake, N.J.) or without (Corning, Corning, N.Y.) Matrigel. Cells were allowed to invade for 24 hours. Cells that had not penetrated the filters were removed by scrubbing with cotton swabs. Chambers were fixed in 100% methanol for 2 min, stained in 0.5% crystal violet for 2 min, rinsed in PBS and examined using a bright-field microscope. Values for invasion were obtained by counting five fields per membrane and represented as the average of three independent experiments performed over multiple days.

Experiment [3] concerns A2780, A2780R, MCF-7, HCT-116, PC-3, HepG2, A549, and SCC4 human cancer cell lines. The experiment can be described thus: Cytotoxicity of DAPs to cancer cells (MTT). As to conditions: 10 μM, 24 h. It counts as cell-based. The procedure: Cell viability was determined by a colorimetric assay using MTT. In the mitochondria of living cells, yellow MTT undergoes a reductive conversion to formazan, giving a purple color. Cells, grown to […] confluence in 75-mm flasks, were trypsinized, counted, seeded in 96-well plates with an average population of 7000 cells/well, incubated overnight, and then treated with the DAPs (H-4073, HO-3867, H4318, or HO-4200; […]) for 24 h. All experiments were done using eight replicates and repeated at least three times. Cell viability was expressed as the percentage of MIT viability of untreated cells.

Experiment [4] concerns HER1, SREBP1, ERK1/2, MMP-2 and VEGF in A2780 and SKOV3 cells. The experiment can be described thus: Blotting of FAS/FAK-regulating proteins. To be noted: 10 μM, 24 h. In kind it is cell-based, human. The protocol: Cells in RPMI 1640 medium were treated with DMSO (control) or HO-3867 (10 μM) for 24 h. Equal volumes of DMSO (0.1% v/v) were present in each treatment. Following treatment, the cell lysates were prepared in nondenaturing lysis buffer containing 10-mM Tris-HCl (pH 7.4), 150-mM NaCl, 1% Triton X-100, 1-mM EDTA, 1-mM EGTA, 0.3-mM phenylmethylsulfonyl fluoride, 0.2-mM sodium orthovanadate, 0.5% NP40, 1-μg/ml aprotinin, and 1-μg/ml leupetin. The lysates were centrifuged at 10,000×g for 20 min at 4° C., and the supernatant was separated. The protein concentration in the lysates was determined using a Pierce detergent-compatible protein assay kit. For Western blotting, 25 to 50 μg of protein lysate per sample was denatured in 2×SDS-PAGE sample buffer and subjected to SDS-PAGE on a 10% tris-glycine gel. The separated proteins were transferred to a PVDF membrane and blocked with 5% nonfat milk powder (w/v) in TBST (10-mM Tris, 10-mM NaCl, 0.1% Tween 20) for 1 h at room temperature or overnight at 4° C. The membranes were then incubated with the primary antibodies. The bound antibodies were detected with horseradish peroxidase (HRP)-labeled sheep anti-mouse IgG or HRP-labeled donkey anti-rabbit IgG using an enhanced chemiluminescence detection system (ECL Advanced kit). Protein expressions were determined using Image Gauge version 3.45.

Experiment [5] concerns the target T1, FAS in A2780 and SKOV3 cells (Homo sapiens, UniProt P49327).
T1 construct: endogenous in cells; host or cells: A2780 and SKOV3 human ovarian cancer cells
The experiment can be described thus: Fatty acid synthase activity assay. In kind it is cell-based. As to conditions: 10 μM, 12 or 24 h, both cell lines. The procedure: The FAS activity was determined spectrophotometrically at 37° C. in particle-free supernatants by measuring the decrease of absorption at 340 nm due to oxidation of NADPH.

In experiment [6] the test system is A2780 cells. The experiment in a line: Cell proliferation by clonogenic assay. In kind it is cell-based, human. As to conditions: 24 hours treatment, 7 days growth. The protocol:
Cell survival was assessed by clonogenic assay. Cells at […] confluence were trypsinized, rinsed, seeded onto 60-mm dishes (5×10^4 cells per dish), grown for 24 hours at 37° C., and treated afterward with H-4073 or HO-3867 for 24 hours. Nontreated cells served as controls. After treatment, the cells were washed twice with PBS, trypsinized, counted, and plated in 60-mm dishes in triplicate and incubated for an additional 7 days. The colonies were then stained with crystal violet (in ethyl alcohol) and counted using an automated colony counter (ColCount, Oxford Optronix). Each experiment was repeated at least five times.

T1 sequence (P49327 whole entry): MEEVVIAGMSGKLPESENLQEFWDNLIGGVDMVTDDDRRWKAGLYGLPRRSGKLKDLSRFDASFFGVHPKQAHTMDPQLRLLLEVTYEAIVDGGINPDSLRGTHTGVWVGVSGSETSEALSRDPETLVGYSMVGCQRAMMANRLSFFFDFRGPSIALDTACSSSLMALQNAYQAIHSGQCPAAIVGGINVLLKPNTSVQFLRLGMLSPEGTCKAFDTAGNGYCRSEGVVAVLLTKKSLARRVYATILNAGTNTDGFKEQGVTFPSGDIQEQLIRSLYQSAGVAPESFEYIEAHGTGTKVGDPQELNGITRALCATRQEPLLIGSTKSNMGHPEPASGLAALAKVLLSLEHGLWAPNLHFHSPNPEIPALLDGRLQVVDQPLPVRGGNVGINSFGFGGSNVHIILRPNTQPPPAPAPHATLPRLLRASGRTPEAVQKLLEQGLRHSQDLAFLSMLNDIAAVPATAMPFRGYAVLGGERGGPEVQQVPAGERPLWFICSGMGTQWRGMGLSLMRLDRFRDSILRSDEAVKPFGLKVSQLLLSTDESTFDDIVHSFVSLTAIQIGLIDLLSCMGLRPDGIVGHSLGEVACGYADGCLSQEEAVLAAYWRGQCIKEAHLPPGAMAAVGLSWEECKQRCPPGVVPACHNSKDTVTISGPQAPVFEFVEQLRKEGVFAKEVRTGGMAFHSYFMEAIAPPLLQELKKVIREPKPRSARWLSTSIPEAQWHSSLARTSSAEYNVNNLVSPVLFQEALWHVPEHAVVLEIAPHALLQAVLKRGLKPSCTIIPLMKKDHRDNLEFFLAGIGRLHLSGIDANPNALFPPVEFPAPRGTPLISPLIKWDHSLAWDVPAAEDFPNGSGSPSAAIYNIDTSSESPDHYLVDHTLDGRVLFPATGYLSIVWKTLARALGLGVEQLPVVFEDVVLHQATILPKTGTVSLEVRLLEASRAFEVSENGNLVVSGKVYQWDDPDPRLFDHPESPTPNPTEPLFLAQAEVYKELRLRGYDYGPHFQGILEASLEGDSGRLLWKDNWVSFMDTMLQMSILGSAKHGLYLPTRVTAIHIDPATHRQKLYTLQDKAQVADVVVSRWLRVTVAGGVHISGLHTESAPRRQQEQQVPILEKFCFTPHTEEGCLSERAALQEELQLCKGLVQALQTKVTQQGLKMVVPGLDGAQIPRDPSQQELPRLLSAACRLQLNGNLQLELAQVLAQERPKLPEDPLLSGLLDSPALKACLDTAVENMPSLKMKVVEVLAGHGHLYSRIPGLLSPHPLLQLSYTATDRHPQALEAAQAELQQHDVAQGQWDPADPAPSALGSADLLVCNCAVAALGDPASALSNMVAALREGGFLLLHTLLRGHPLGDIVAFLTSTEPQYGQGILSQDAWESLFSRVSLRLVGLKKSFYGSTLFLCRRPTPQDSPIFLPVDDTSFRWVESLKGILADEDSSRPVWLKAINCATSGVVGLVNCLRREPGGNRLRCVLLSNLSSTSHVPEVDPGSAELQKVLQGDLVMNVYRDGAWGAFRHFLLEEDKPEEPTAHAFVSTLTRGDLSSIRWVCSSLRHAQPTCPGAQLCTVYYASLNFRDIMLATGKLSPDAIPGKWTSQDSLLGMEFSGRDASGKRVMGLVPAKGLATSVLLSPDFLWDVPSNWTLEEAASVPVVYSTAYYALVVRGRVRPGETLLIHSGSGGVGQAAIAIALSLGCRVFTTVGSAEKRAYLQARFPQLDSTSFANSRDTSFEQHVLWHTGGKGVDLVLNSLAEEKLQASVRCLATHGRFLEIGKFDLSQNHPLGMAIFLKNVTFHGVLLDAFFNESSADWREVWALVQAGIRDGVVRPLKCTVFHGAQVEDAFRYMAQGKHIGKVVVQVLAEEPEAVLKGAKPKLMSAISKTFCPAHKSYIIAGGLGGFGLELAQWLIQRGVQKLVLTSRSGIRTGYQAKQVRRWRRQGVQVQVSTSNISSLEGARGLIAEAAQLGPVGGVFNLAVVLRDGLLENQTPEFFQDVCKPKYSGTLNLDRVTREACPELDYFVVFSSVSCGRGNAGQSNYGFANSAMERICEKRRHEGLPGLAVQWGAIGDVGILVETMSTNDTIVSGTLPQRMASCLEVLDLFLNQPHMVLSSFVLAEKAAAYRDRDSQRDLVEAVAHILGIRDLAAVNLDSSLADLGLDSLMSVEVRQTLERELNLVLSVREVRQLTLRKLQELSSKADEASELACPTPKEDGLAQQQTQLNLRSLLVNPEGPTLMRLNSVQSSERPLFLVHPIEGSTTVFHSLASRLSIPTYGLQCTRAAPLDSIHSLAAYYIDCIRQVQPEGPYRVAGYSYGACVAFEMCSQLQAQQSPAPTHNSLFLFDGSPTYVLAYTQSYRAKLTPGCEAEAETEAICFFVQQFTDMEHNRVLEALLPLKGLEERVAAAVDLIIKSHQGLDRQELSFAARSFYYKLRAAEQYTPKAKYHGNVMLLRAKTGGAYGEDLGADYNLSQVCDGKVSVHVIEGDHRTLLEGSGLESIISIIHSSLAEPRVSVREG

Regarding `CC1(C)C=C(CN2C/C(=C\c3ccc(F)cc3)C(=O)/C(=C/c3ccc(F)cc3)C2)C(C)(C)N1O` [HO-3867, 1-[(1-oxyl-2,2,5,5-tetramethyl-2,5-dihydro-1H-pyrrol-3-yl)methyl]-(3E,5E)-3,5-bis(4-fluorobenzylidene)piperidin-4-one], the “intracellular ROS generation (DCF fluorescence) in A2780 cells” value in experiment [1] is recorded as “comparable in inducing ROS generation”. In addition, the cell migration entry in experiment [2] (24 hours, versus untreated cells) is “significant inhibition”. In addition, the VEGF-induced migration entry in experiment [2] (24-h incubation, versus VEGF group) is “significantly inhibited”. Moreover, the “cell viability of human cancer cell lines” value in experiment [3] was “substantial loss of cell viability”. For the same molecule, the “pHER2, pERK1/2, SREBP1, MMP-2, and VEGF” value in experiment [4] is on record as “inhibited”. The FAS activity result in experiment [5] is listed as “significantly reduced”. Also, the “number of colonies (colony-forming ability)” value in experiment [6] is “dose-dependent reduction in the number of colonies”.
